According to ChEMBL document CHEMBL4020763, “N-(1H-Pyrazol-3-yl)quinazolin-4-amines as a novel class of casein kinase 1δ/ε inhibitors: Synthesis, biological evaluation and molecular modeling studies” (Bioorg Med Chem Lett, 2017):

Columns and labels:
MCF7 [1] = test: Cytotoxicity against human MCF7 cells by MTT assay; type: functional, cell-based
BT-20 [2] = test: Cytotoxicity against human BT20 cells by MTT assay; type: functional, cell-based
A549 [3] = test: Cytotoxicity against human A549 cells by MTT assay; type: functional, cell-based
MCF7 [4] = test: Growth inhibition of human MCF7 cells at 100 uM by MTT assay relative to control; type: functional; settings: read-out: GI
HCT-15 [5] = test: Growth inhibition of human HCT15 cells at 100 uM by MTT assay relative to control; type: functional; settings: read-out: GI
[6] = molecular target: Dual specificity protein kinase CLK1 (Mus musculus, UniProt P22518); test: Inhibition of recombinant mouse GST-fused CLK1 expressed in Escherichia coli using RS peptide as substrate after 30 mins in presence of ATP by scintillation counting method
[7] = Growth inhibition of HEK293 cells at 100 uM by MTT assay relative to control; type: cell-based; settings: human, read-out: GI
MDA-MB-468 [8] = test: Growth inhibition of human MDA-MB-468 cells at 100 uM by MTT assay relative to control; type: functional; settings: read-out: GI
[9] = molecular target: Glycogen synthase kinase-3 (Sus scrofa) (UniProt B2LUN4+I6LNT8); test: Inhibition of porcine brain GSK-3 alpha/beta at 10 uM using YRRAAVPPSPSLSRHSSPHQpSEDEEE as substrate after 30 mins in presence of ATP by scintillation counting method relative to control
MIA PaCa-2 [10] = test: Growth inhibition of human MIAPaCa2 cells at 100 uM by MTT assay relative to control; type: functional; settings: read-out: GI
HCT-15 [11] = test: Cytotoxicity against human HCT15 cells by MTT assay; type: functional, cell-based
MIA PaCa-2 [12] = test: Cytotoxicity against human MIAPaCa2 cells by MTT assay; type: functional, cell-based
[13] = molecular target: Dual specificity protein kinase CLK1 (Mus musculus) (UniProt P22518); test: Inhibition of recombinant mouse GST-fused CLK1 expressed in Escherichia coli at 10 uM using RS peptide as substrate after 30 mins in presence of ATP by scintillation counting method relative to control
ZR-75-1 [14] = test: Growth inhibition of human ZR-75-1 cells at 100 uM by MTT assay relative to control; type: functional; settings: read-out: GI
Sus scrofa = species on record: Sus scrofa; test: Inhibition of porcine brain CK1-delta/epsilon at 10 uM using CSK peptide as substrate after 30 mins in presence of ATP by scintillation counting method relative to control
DU-145 = test: Growth inhibition of human DU145 cells at 100 uM by MTT assay relative to control; type: functional; settings: read-out: GI
MDA-MB-468 [15] = test: Cytotoxicity against human MDA-MB-468 cells by MTT assay; type: functional, cell-based
Asteroidea = test: Inhibition of M-phase starfish oocytes CDK1/cyclin B at 10 uM using histone H1 as substrate after 30 mins in presence of ATP by scintillation counting method relative to control
[16] = molecular target: Dual specificity tyrosine-phosphorylation-regulated kinase 1A (Homo sapiens) (UniProt Q13627); test: Inhibition of recombinant full length human GST-fused DYRK1A expressed in Escherichia coli at 10 uM using RS peptide as substrate after 30 mins in presence of ATP by scintillation counting method relative to control
[17] = molecular target: Glycogen synthase kinase-3 (Sus scrofa, UniProt B2LUN4+I6LNT8); test: Inhibition of porcine brain GSK-3 alpha/beta using YRRAAVPPSPSLSRHSSPHQpSEDEEE as substrate after 30 mins in presence of ATP by scintillation counting method
ZR-75-1 [18] = test: Cytotoxicity against human ZR-75-1 cells by MTT assay; type: functional, cell-based
[19] = molecular target: CDK9/cyclin T1 (Homo sapiens) (UniProt O60563+P50750); test: Inhibition of recombinant human CDK9/cyclin T expressed in insect cells at 10 uM using YSPTSPSYSPTSPSYSPTSPSKKKK as substrate after 30 mins in presence of ATP by scintillation counting method relative to control
ZR-75-30 [20] = test: Growth inhibition of human ZR-7530 cells at 100 uM by MTT assay relative to control; type: functional; settings: read-out: GI
A549 [21] = test: Growth inhibition of human A549 cells at 100 uM by MTT assay relative to control; type: functional; settings: read-out: GI
HEK293 = test: Cytotoxicity against HEK293 cells by MTT assay; type: cell-based; settings: Homo sapiens
ZR-75-30 [22] = test: Cytotoxicity against human ZR-7530 cells by MTT assay; type: functional, cell-based
[23] = molecular target: CDK2/Cyclin A2 (Homo sapiens) (UniProt P24941+P20248); test: Inhibition of recombinant human CDK2/cyclin A at 10 uM using histone H1 as substrate after 30 mins in presence of ATP by scintillation counting method relative to control; type: protein-complex assay
PANC-1 [24] = test: Cytotoxicity against human PANC1 cells by MTT assay; type: functional, cell-based
CDK2/Cyclin A2 = CDK2/Cyclin A2 (Homo sapiens, UniProt P24941); test: Inhibition of recombinant human CDK2/cyclin A using histone H1 as substrate after 30 mins in presence of ATP by scintillation counting method; type: protein-complex assay
[25] = Inhibition of M-phase starfish oocytes CDK1/cyclin B using histone H1 as substrate after 30 mins in presence of ATP by scintillation counting method; set-up: species or system Asteroidea
BT-20 [26] = test: Growth inhibition of human BT20 cells at 100 uM by MTT assay relative to control; type: functional; settings: read-out: GI
MDA-MB-231 [27] = test: Cytotoxicity against human MDA-MB-231 cells by MTT assay; type: functional, cell-based
PANC-1 [28] = test: Growth inhibition of human PANC1 cells at 100 uM by MTT assay relative to control; type: functional; settings: read-out: GI
[29] = Inhibition of porcine brain CK1-delta/epsilon using CSK peptide as substrate after 30 mins in presence of ATP by scintillation counting method; set-up: species or system Sus scrofa
MDA-MB-231 [30] = test: Growth inhibition of human MDA-MB-231 cells at 100 uM by MTT assay relative to control; type: functional; settings: read-out: GI
[31] = molecular target: Cyclin-dependent kinase 5/CDK5 activator 1 (Homo sapiens) (UniProt Q00535+Q15078); test: Inhibition of recombinant human CDK5/p25 expressed in Escherichia coli at 10 uM using histone H1 as substrate after 30 mins in presence of ATP by scintillation counting method relative to control
Cyclin-dependent kinase 5/CDK5 activator 1 (Homo sapiens), sequence (Q00535 whole entry): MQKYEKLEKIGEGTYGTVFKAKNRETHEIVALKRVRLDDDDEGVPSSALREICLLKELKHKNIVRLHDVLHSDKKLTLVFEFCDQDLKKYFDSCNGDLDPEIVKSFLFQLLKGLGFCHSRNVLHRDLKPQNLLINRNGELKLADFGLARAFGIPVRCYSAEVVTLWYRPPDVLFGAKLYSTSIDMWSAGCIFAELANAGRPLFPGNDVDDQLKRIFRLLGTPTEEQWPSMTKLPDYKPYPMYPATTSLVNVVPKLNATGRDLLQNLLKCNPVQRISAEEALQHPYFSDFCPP
Cyclin-dependent kinase 5/CDK5 activator 1 (Homo sapiens), sequence (Q15078 99-307 partner limits assumed): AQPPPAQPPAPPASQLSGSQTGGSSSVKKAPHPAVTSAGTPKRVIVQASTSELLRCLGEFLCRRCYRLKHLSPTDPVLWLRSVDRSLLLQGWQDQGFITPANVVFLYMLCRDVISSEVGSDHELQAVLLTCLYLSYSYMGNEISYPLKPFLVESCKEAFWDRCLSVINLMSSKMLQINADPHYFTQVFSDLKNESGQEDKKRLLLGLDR

Dual specificity protein kinase CLK1, sequence (P22518 whole entry, the tested form may be a part): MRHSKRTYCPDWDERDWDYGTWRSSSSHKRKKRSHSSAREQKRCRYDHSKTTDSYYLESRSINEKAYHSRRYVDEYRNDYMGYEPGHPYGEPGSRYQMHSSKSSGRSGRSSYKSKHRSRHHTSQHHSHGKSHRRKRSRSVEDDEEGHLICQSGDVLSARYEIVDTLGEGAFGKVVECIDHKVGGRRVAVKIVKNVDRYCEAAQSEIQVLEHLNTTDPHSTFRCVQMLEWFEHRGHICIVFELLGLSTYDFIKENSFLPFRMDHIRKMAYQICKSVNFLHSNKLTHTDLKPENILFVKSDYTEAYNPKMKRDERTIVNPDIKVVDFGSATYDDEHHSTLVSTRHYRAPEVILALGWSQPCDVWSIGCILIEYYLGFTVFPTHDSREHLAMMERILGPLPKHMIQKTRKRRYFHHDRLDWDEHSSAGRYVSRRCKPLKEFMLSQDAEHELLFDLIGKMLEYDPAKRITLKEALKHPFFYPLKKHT
Dual specificity protein kinase CLK1 (Mus musculus), sequence (P22518 whole entry, looked up, the tested form may be a part): as the sequence (P22518 whole entry, the tested form may be a part) above

SMILES | IC50 (MCF7 [1]) [µM] | IC50 (BT-20 [2]) [µM] | IC50 (A549 [3]) [µM] | inhibition of growth at 100 µM (MCF7 [4]) [%] | inhibition of growth at 100 µM (HCT-15 [5]) [%] | IC50 [6] [µM] | inhibition at 100 µM [7] [%] | inhibition of growth at 100 µM (MDA-MB-468 [8]) [%] | inhibition [9] [%] | inhibition of growth at 100 µM (MIA PaCa-2 [10]) [%] | IC50 (HCT-15 [11]) [µM] | IC50 (MIA PaCa-2 [12]) [µM] | inhibition [13] [%] | inhibition of growth at 100 µM (ZR-75-1 [14]) [%] | inhibition (Sus scrofa) [%] | inhibition of growth at 100 µM (DU-145) [%] | IC50 (MDA-MB-468 [15]) [µM] | inhibition (Asteroidea) [%] | inhibition [16] [%] | IC50 [17] [µM] | other results
COc1cc2ncnc(Nc3cc(-c4ccc(Cl)cc4)[nH]n3)c2cc1OC | > 100 | > 100 | > 100 | > 50 | > 50 | > 10 | > 50 | > 50 | > 50 | > 50 | 98.2 | < 100 | > 50 | > 50 | > 50 | > 50 | 79.5 | > 50 | > 50 | > 10 | IC50 (ZR-75-1 [18]): > 100 µM; inhibition [19]: > 50%; inhibition of growth at 100 µM (ZR-75-30 [20]): > 50%; inhibition of growth at 100 µM (A549 [21]): > 50%; IC50 (HEK293): 81.2 µM; IC50 (ZR-75-30 [22]): 91.5 µM; inhibition [23]: > 50%; IC50 (PANC-1 [24]): > 100 µM; IC50 (CDK2/Cyclin A2): > 10 µM; IC50 [25]: > 10 µM; inhibition of growth at 100 µM (BT-20 [26]): > 50%; IC50 (MDA-MB-231 [27]): < 100 µM; inhibition of growth at 100 µM (PANC-1 [28]): > 50%; IC50 [29]: < 10 µM; inhibition of growth at 100 µM (MDA-MB-231 [30]): > 50%; inhibition [31]: > 50%
COc1ccc(-c2cc(Nc3ncnc4cc(OC)c(OC)cc34)n[nH]2)cc1 | > 100 | > 100 | > 100 | > 50 | > 50 | > 10 | > 50 | > 50 | > 50 | > 50 | < 100 | < 100 | > 50 | > 50 | > 50 | > 50 | 45.3 | > 50 | > 50 | > 10 | IC50 (ZR-75-1 [18]): > 100 µM; inhibition [19]: > 50%; inhibition of growth at 100 µM (ZR-75-30 [20]): > 50%; inhibition of growth at 100 µM (A549 [21]): > 50%; IC50 (HEK293): > 100 µM; IC50 (ZR-75-30 [22]): < 100 µM; inhibition [23]: > 50%; IC50 (PANC-1 [24]): > 100 µM; IC50 (CDK2/Cyclin A2): > 10 µM; IC50 [25]: > 10 µM; inhibition of growth at 100 µM (BT-20 [26]): > 50%; IC50 (MDA-MB-231 [27]): < 100 µM; inhibition of growth at 100 µM (PANC-1 [28]): > 50%; IC50 [29]: < 10 µM; inhibition of growth at 100 µM (MDA-MB-231 [30]): > 50%; inhibition [31]: > 50%
